Experimental data reported in US20220273628A1, “EFFECTS OF LYSERGIC ACID DIETHYLAMIDE (LSD) AND OF LSD ANALOGS TO ASSIST PSY[…] G[…] DISORDER OR OTHER ANXIETY NOT RELATED TO LIFE-T[…]” (Universitätsspital Basel, priority 2021, published 2022).

Legend:
[1] = system: patients with anxiety disorder without somatic illness; assay: Same phase II study: acute alterations of mind (5D-ASC) and mystical-type effects (MEQ30); type: in vivo, human
Procedure: Each of the four LSD/Placebo sessions lasted 12 hours from 8 AM to 8 PM. Sessions took place in a quiet room at the Ambulatory Study Center of the University Hospital Basel (Basel center) or in the private practice office of Dr. P. Gasser (Solothurn center). At the beginning of the session, current mood and mental state were discussed and a urine drug screen was taken and any AEs since the last visit were recorded. Any open questions or concerns were addressed by the investigator. The participants were advised to lie in a bed or sit comfortably on a chair. Other than going to the bathroom, the participants remained in the treatment room for the entire 12-hour experimental session and were supervised constantly up to 8-12 hours after LSD/placebo administration depending on the participant's response and as needed. The subjective effects of LSD at the dose used in this study were expected to last 8-12 hours (Gasser et al., 2014; Holze et al., 2021; Schmid et al., 2015). […] During the LSD/placebo effect, the participants were instructed to focus their awareness inward. Subjects were encouraged to wear eye shades during the first hours (or the light was dimmed) as well as to listen to music and discussions/talking much with the investigator were discouraged. Subjects were allowed to remain mostly undisturbed with brief physical contacts every two hours when heart rate and blood pressure were measured. At the end of the sessions, 10-12 hours after LSD/placebo administration, the acute subjective peak effects were retrospectively rated by the participants using the 5D-ASC, SCQ, AMRS, and VASs and the experience was discussed. Ten-twelve hours after LSD/placebo administration the participants were allowed to return to their home with company and supervision provided by the partner, a relative, or a friend. […]
The 5 dimensions of altered states of consciousness (5D-ASC) scale is a visual analog scale consisting of 94 items (Dittrich, 1998; Studerus et al., 2010). […] Each item of the scale was scored on a 0-100 mm VAS. […]

5-HT1 receptors = settings: cited from earlier work

With `CCN(CC)C(=O)[C@@H]1C=C2c3cccc4[nH]cc(c34)C[C@H]2N(C)C1` [LSD, lysergic acid diethylamide] the “ratings of mystical-type experiences on the MEQ30 questionnaire” value ([1]; 200 μg vs placebo, similar at first and second session) was “significantly and strongly increased”, the “alterations in all scales of the 5D-ASC questionnaire” value ([1]; 200 μg, all p<0.001 vs. placebo, comparable at session 1 and 2) was “significant and marked alterations” and the “acute effects (5D-ASC) compared with healthy subjects given the same dose” value ([1]; 200 μg, comparison with Holze et al., 2021) was “generally greater”. For the same compound, the “activity at 5-HT1 receptors” value (5-HT1 receptors) was “stimulates”.
